This is an account of results in publication PMC11822212, “High-throughput screening identifies Aurora kinase B as a critical therapeutic target for Merkel cell carcinoma” (Nature Communications, 2025).

Read-outs that look alike come from different tables or passages of the source.

Test systems include MCC13 cells (VN-MCC); MCC26 cells (VN-MCC); UISO cells (VN-MCC); WAGA cells (VP-MCC); MKL-1 cells (VP-MCC); MKL-2 cells (VP-MCC).
What all share (experiment): qHTS cell viability (CellTiter-Glo, 72 h; primary and follow-up small molecule screen)
Common to all, as to assay type: cell-based, human

[1] abbreviates: follow-up screen, MCC13, replicate 1.
Setting [2] is: follow-up screen, MCC13, replicate 2.
The mark [3] stands for this setting: follow-up screen, MCC13, replicate 3.
[4] abbreviates: follow-up screen, MCC26, replicate 1.
[5] abbreviates: follow-up screen, MCC26, replicate 2.
[6] abbreviates: follow-up screen, MCC26, replicate 3.
The mark [7] stands for this setting: follow-up screen, UISO, replicate 1.
The mark [8] stands for this setting: follow-up screen, UISO, replicate 2.
The mark [9] stands for this setting: follow-up screen, UISO, replicate 3.
Where [10] appears, read: follow-up screen, WAGA, replicate 1.
Where [11] appears, read: follow-up screen, WAGA, replicate 2.
Where [12] appears, read: follow-up screen, WAGA, replicate 3.
[13] abbreviates: follow-up screen, MKL-1, replicate 1.
Where [14] appears, read: follow-up screen, MKL-1, replicate 2.
Where [15] appears, read: follow-up screen, MKL-1, replicate 3.
[16] abbreviates: follow-up screen, MKL-2, replicate 1.
[17] abbreviates: follow-up screen, MKL-2, replicate 2.
Where [18] appears, read: follow-up screen, MKL-2, replicate 3.

Take `CN(C)C(=S)SSC(=S)N(C)C` [Thiram]: the “Area under the dose-response curve (AUC) MCC13 Replicate 1” value (from here on “Area … (AUC) MCC13 Replicate 1”) with MCC13 cells (VN-MCC) (setting [1]) is 426.5. Also, in the test with MCC13 cells (VN-MCC) (setting [2]), the “Area under the dose-response curve (AUC) MCC13 Replicate 2” value (from here on “Area … (AUC) MCC13 Replicate 2”) worked out at 421.8. Moreover, the “Area under the dose-response curve (AUC) MCC13 Replicate 3” value (from here on “Area … (AUC) MCC13 Replicate 3”) in the test with MCC13 cells (VN-MCC) (setting [3]) was found to be 374.2. Further, the “Area under the dose-response curve (AUC) MCC26 Replicate 1” value (from here on “Area … (AUC) MCC26 Replicate 1”) in the test with MCC26 cells (VN-MCC) (setting [4]) is 337.3. Also, the “Area under the dose-response curve (AUC) MCC26 Replicate 2” value (from here on “Area … (AUC) MCC26 Replicate 2”) in the test on MCC26 cells (VN-MCC) (setting [5]) was found to be 393.8. Further, the “Area under the dose-response curve (AUC) MCC26 Replicate 3” value (from here on “Area … (AUC) MCC26 Replicate 3”) in the test on MCC26 cells (VN-MCC) (setting [6]) turned out to be 315.2. The “Area under the dose-response curve (AUC) UISO Replicate 1” value (from here on “Area … (AUC) UISO Replicate 1”) in the test with UISO cells (VN-MCC) (setting [7]) was found to be 236.0. In addition, the “Area under the dose-response curve (AUC) UISO Replicate 2” value (“Area … (AUC) UISO Replicate 2” for short) in the test with UISO cells (VN-MCC) (setting [8]) was 292.8. For the same molecule, in the test with UISO cells (VN-MCC) (setting [9]), the “Area under the dose-response curve (AUC) UISO Replicate 3” value (“Area … (AUC) UISO Replicate 3” for short) is given as 254.7. For the same molecule, in the test with WAGA cells (VP-MCC) (setting [10]), the “Area under the dose-response curve (AUC) WAGA Replicate 1” value (“Area … (AUC) WAGA Replicate 1” for short) worked out at 336.4. In the test on WAGA cells (VP-MCC) (setting [11]), the “Area under the dose-response curve (AUC) WAGA Replicate 2” value (“Area … (AUC) WAGA Replicate 2” for short) is listed as 438.2. Moreover, the “Area under the dose-response curve (AUC) WAGA Replicate 3” value (“Area … (AUC) WAGA Replicate 3” for short) in the test on WAGA cells (VP-MCC) (setting [12]) is 469.3. The “Area under the dose-response curve (AUC) MKL-1 Replicate 1” value (“Area … (AUC) MKL-1 Replicate 1” for short) with MKL-1 cells (VP-MCC) (setting [13]) was 288.7. Also, in the test with MKL-1 cells (VP-MCC) (setting [14]), the “Area under the dose-response curve (AUC) MKL-1 Replicate 2” value (from here on “Area … (AUC) MKL-1 Replicate 2”) worked out at 292.8. The “Area under the dose-response curve (AUC) MKL-1 Replicate 3” value (from here on “Area … (AUC) MKL-1 Replicate 3”) with MKL-1 cells (VP-MCC) (setting [15]) is on record as 242.1. In addition, in the test on MKL-2 cells (VP-MCC) (setting [16]), the “Area under the dose-response curve (AUC) MKL-2 Replicate 1” value (from here on “Area … (AUC) MKL-2 Replicate 1”) is recorded as 303.0. The “Area under the dose-response curve (AUC) MKL-2 Replicate 2” value (from here on “Area … (AUC) MKL-2 Replicate 2”) in the test with MKL-2 cells (VP-MCC) (setting [17]) is reported as 281.4. In addition, the “Area under the dose-response curve (AUC) MKL-2 Replicate 3” value (from here on “Area … (AUC) MKL-2 Replicate 3”) in the test on MKL-2 cells (VP-MCC) (setting [18]) is 269.4.

In the case of `N#CC(=C(/N)Sc1ccccc1N)/C(C#N)=C(\N)Sc1ccccc1N` [U-0126], the “Area … (AUC) MCC13 Replicate 1” value in the test on MCC13 cells (VN-MCC) (setting [1]) was 475.9. The “Area … (AUC) MCC13 Replicate 2” value in the test on MCC13 cells (VN-MCC) (setting [2]) is 463.7. In addition, the “Area … (AUC) MCC13 Replicate 3” value in the test on MCC13 cells (VN-MCC) (setting [3]) was 403.4. The “Area … (AUC) MCC26 Replicate 1” value in the test with MCC26 cells (VN-MCC) (setting [4]) worked out at 467.3. Moreover, in the test on MCC26 cells (VN-MCC) (setting [5]), the “Area … (AUC) MCC26 Replicate 2” value amounted to 454.7. The “Area … (AUC) MCC26 Replicate 3” value in the test with MCC26 cells (VN-MCC) (setting [6]) is recorded as 472.7. In the test on UISO cells (VN-MCC) (setting [7]), the “Area … (AUC) UISO Replicate 1” value amounted to 414.2. Further, in the test with UISO cells (VN-MCC) (setting [8]), the “Area … (AUC) UISO Replicate 2” value is listed as 403.9. Further, the “Area … (AUC) UISO Replicate 3” value in the test on UISO cells (VN-MCC) (setting [9]) came to 361.8. The “Area … (AUC) WAGA Replicate 1” value with WAGA cells (VP-MCC) (setting [10]) amounted to 550.5. Also, the “Area … (AUC) WAGA Replicate 2” value in the test on WAGA cells (VP-MCC) (setting [11]) came to 484.0. In addition, in the test on WAGA cells (VP-MCC) (setting [12]), the “Area … (AUC) WAGA Replicate 3” value was 458.9. In addition, in the test on MKL-1 cells (VP-MCC) (setting [13]), the “Area … (AUC) MKL-1 Replicate 1” value worked out at 488.8. Besides, the “Area … (AUC) MKL-1 Replicate 2” value in the test on MKL-1 cells (VP-MCC) (setting [14]) is on record as 473.7. Besides, the “Area … (AUC) MKL-1 Replicate 3” value with MKL-1 cells (VP-MCC) (setting [15]) came out at 468.2. The “Area … (AUC) MKL-2 Replicate 1” value in the test with MKL-2 cells (VP-MCC) (setting [16]) is recorded as 434.1. Further, the “Area … (AUC) MKL-2 Replicate 2” value with MKL-2 cells (VP-MCC) (setting [17]) came out at 447.4. Besides, in the test on MKL-2 cells (VP-MCC) (setting [18]), the “Area … (AUC) MKL-2 Replicate 3” value was 479.4.

On to `COc1cc(O)c2c(c1)oc(=O)c1c3cc(O)c(O)cc3oc21` [WEDELOLACTONE], for which, in the test on MCC13 cells (VN-MCC), the “Area … (AUC) MCC13 Replicate 1” value is 452.7, the “Area … (AUC) MCC13 Replicate 2” value is 445.8 and the “Area … (AUC) MCC13 Replicate 3” value came to 440.3. For the same molecule, in the test with MCC26 cells (VN-MCC), the “Area … (AUC) MCC26 Replicate 1” value was found to be 436.4, the “Area … (AUC) MCC26 Replicate 2” value came out at 432.2 and the “Area … (AUC) MCC26 Replicate 3” value stood at 441.9. Moreover, in the test with UISO cells (VN-MCC), the “Area … (AUC) UISO Replicate 1” value is given as 275.6, the “Area … (AUC) UISO Replicate 2” value was 271.0 and the “Area … (AUC) UISO Replicate 3” value stood at 228.5. In the test with WAGA cells (VP-MCC), the “Area … (AUC) WAGA Replicate 1” value amounted to 442.4, the “Area … (AUC) WAGA Replicate 2” value came to 419.0 and the “Area … (AUC) WAGA Replicate 3” value was 421.6. Moreover, in the test on MKL-1 cells (VP-MCC), the “Area … (AUC) MKL-1 Replicate 1” value worked out at 490.5, the “Area … (AUC) MKL-1 Replicate 2” value is 454.4 and the “Area … (AUC) MKL-1 Replicate 3” value came to 448.6. Further, in the test with MKL-2 cells (VP-MCC), the “Area … (AUC) MKL-2 Replicate 1” value came out at 426.5, the “Area … (AUC) MKL-2 Replicate 2” value is on record as 409.5 and the “Area … (AUC) MKL-2 Replicate 3” value worked out at 433.4.

Regarding `Cc1ccc(NC(=O)c2cccc(N(C)C)c2)cc1NC(=O)c1ccc(O)cc1` [ZM-336372], the “Area … (AUC) MCC13 Replicate 1” value in the test on MCC13 cells (VN-MCC) (setting [1]) is on record as 498.2. The “Area … (AUC) MCC13 Replicate 2” value in the test with MCC13 cells (VN-MCC) (setting [2]) is given as 493.5. Also, the “Area … (AUC) MCC13 Replicate 3” value with MCC13 cells (VN-MCC) (setting [3]) turned out to be 506.1. In addition, the “Area … (AUC) MCC26 Replicate 1” value with MCC26 cells (VN-MCC) (setting [4]) worked out at 438.1. In addition, the “Area … (AUC) MCC26 Replicate 2” value in the test on MCC26 cells (VN-MCC) (setting [5]) came out at 425.8. In addition, in the test with MCC26 cells (VN-MCC) (setting [6]), the “Area … (AUC) MCC26 Replicate 3” value is listed as 478.4. In the test with UISO cells (VN-MCC) (setting [7]), the “Area … (AUC) UISO Replicate 1” value stood at 448.6. Besides, in the test on UISO cells (VN-MCC) (setting [8]), the “Area … (AUC) UISO Replicate 2” value was 464.6. The “Area … (AUC) UISO Replicate 3” value with UISO cells (VN-MCC) (setting [9]) was determined as 456.5. Further, in the test with WAGA cells (VP-MCC) (setting [10]), the “Area … (AUC) WAGA Replicate 1” value came out at 500.4. The “Area … (AUC) WAGA Replicate 2” value with WAGA cells (VP-MCC) (setting [11]) was found to be 604.1. The “Area … (AUC) WAGA Replicate 3” value in the test with WAGA cells (VP-MCC) (setting [12]) is 537.5. Besides, the “Area … (AUC) MKL-1 Replicate 1” value with MKL-1 cells (VP-MCC) (setting [13]) was 480.0. In addition, the “Area … (AUC) MKL-1 Replicate 2” value in the test with MKL-1 cells (VP-MCC) (setting [14]) was determined as 490.6. The “Area … (AUC) MKL-1 Replicate 3” value in the test with MKL-1 cells (VP-MCC) (setting [15]) is on record as 522.7. For the same molecule, in the test with MKL-2 cells (VP-MCC) (setting [16]), the “Area … (AUC) MKL-2 Replicate 1” value is 501.8. Also, the “Area … (AUC) MKL-2 Replicate 2” value with MKL-2 cells (VP-MCC) (setting [17]) was found to be 535.1. For the same molecule, the “Area … (AUC) MKL-2 Replicate 3” value in the test on MKL-2 cells (VP-MCC) (setting [18]) was 493.2.
